Test results from patent US9340577B2, “HLA binding motifs and peptides and their uses” (priority 1992, dated 2016).
Like-named read-outs stand apart in the source and are kept apart here. No end group written: not given here.

Experiments:
Assay in all cases: biochemical
B*5401 = B*5401 (Homo sapiens, UniProt P01889, A329T/C349S/D138N/D201E/E176V/E187T/E204Q/E69G/I76V/K202T/L119W/R155S/R180L/S121T/S35A/S48A/V127L/V306I/V36M/Y140L)
B*0702 (B*0701) = B*0702 (B*0701) (Homo sapiens, UniProt P01889); format: binding; settings: for B*0701 binding: Table 25, given as whole numbers, no unit
B*0701 = B*0701 (Homo sapiens, UniProt P01889)
[1] = B*0701 (nM), binding of B7-like supermotif 10-mer peptides to purified HLA-B*0701
[2] = B*0701 (nM), Binding of peptides to B7-like supermotif alleles, Table 36

Compound | IC50 (B*5401) | IC50 (B*0701; [2]) | also measured
NPYNTPVFAI [15.255] | 6600 nM | – | –
VPGAATPYA [16.175] | 5780 nM | – | –
YPKVKQWPL | – | – | B*0701 binding (B*0702 (B*0701)): 0
SPEVIPMFSA [16.192] | 5620 nM | – | –
SPIETVPVKL [15.253] | – | – | IC50 (B*0701; [1]): 1960 nM
CC(C)C[C@H](NC(=O)[C@H](CO)NC(=O)[C@H](CCCNC(=N)N)NC(=O)[C@H](CC(C)C)NC(=O)[C@H](CO)NC(=O)[C@H](C)NC(=O)[C@H](CC(C)C)NC(=O)[C@@H]1CCCN1C(=O)[C@@H](N)Cc1ccc(O)cc1)C(=O)O [15.088] | – | 5.5 nM | –
EPAADGVGA [16.020] | 13000 nM | – | –
TPPLVKLWV [15.090] | 4820 nM | – | –
QPDKSESEL [15.092] | – | 9000 nM | –
KPCVKLTPL [15.070] | – | 13 nM | –
CC(C)C[C@H](NC(=O)[C@H](Cc1ccc(O)cc1)NC(=O)[C@@H]1CCCN1C(=O)[C@@H](N)Cc1ccccc1)C(=O)N[C@H](C(=O)N[C@@H](C)C(=O)N[C@@H](Cc1ccc(O)cc1)C(=O)N[C@@H](CCC(N)=O)C(=O)N[C@@H](C)C(=O)O)C(C)C [16.012] | 1.2 nM | 18000 nM | –
CC(C)C[C@H](NC(=O)[C@@H]1CCCN1C(=O)[C@H](CS)NC(=O)[C@H](CO)NC(=O)[C@@H]1CCCN1C(=O)[C@@H](N)CO)C(=O)N[C@@H](CCC(=O)O)C(=O)N[C@@H](CCCNC(=N)N)C(=O)N[C@@H](Cc1ccccc1)C(=O)N[C@@H](C)C(=O)O [16.202] | 2450 nM | – | –
LPENNVLSPL | – | – | B*0701 binding (B*0702 (B*0701)): 0
CC[C@H](C)[C@H](NC(=O)[C@H](CC(=O)O)NC(=O)[C@H](CCC(N)=O)NC(=O)[C@H](CC(C)C)NC(=O)[C@@H](NC(=O)[C@H](C)NC(=O)[C@H](CCCCN)NC(=O)[C@@H]1CCCN1C(=O)CN)[C@@H](C)O)C(=O)O [15.102] | – | 13500 nM | –
QPDDAVYKL | – | – | B*0701 binding (B*0702 (B*0701)): 0
YPAEITLYW | – | – | B*0701 binding (B*0702 (B*0701)): 0

Compound | IC50 (B*5401) | IC50 (B*0701; [2]) | also measured
FAMPNFQTL | – | – | B*0701 binding (B*0702 (B*0701)): 0
CC[C@H](C)[C@H](NC(=O)[C@H](Cc1c[nH]cn1)NC(=O)[C@@H]1CCCN1C(=O)CN)C(=O)N[C@@H](CO)C(=O)N[C@@H](Cc1ccc(O)cc1)C(=O)N1CCC[C@H]1C(=O)N1CCC[C@H]1C(=O)N[C@@H](CC(C)C)C(=O)O [15.156] | – | 6.2 nM | –
MPRGVVVTL | – | – | B*0701 binding (B*0702 (B*0701)): 3
SPWLTPRCM [15.046] | – | – | IC50 (B*0701): 651 nM
C[C@H](NC(=O)CNC(=O)[C@H](CCC(N)=O)NC(=O)[C@@H]1CCCN1C(=O)[C@H](CO)NC(=O)[C@H](Cc1c[nH]cn1)NC(=O)[C@@H]1CCCN1C(=O)[C@@H]1CCCN1C(=O)[C@@H](N)CO)C(=O)O [16.022] | 3060 nM | – | –
IPAETGQETA [16.195] | 594 nM | – | –
1292.2 (APTLWARMII) [Peptide 1292.2] | – | – | B*0702 binding (B*0702 (B*0701); Table 30, unit not given): 0.39
VPHPNIEEVA [16.189] | 36 nM | – | –
CC[C@H](C)[C@H](NC(=O)[C@@H](NC(=O)[C@H](CC(C)C)NC(=O)[C@H](CC(C)C)NC(=O)CNC(=O)[C@@H](NC(=O)[C@H](CCCCN)NC(=O)[C@@H]1CCCN1C(=O)[C@@H](N)CCSC)[C@@H](C)O)[C@@H](C)CC)C(=O)O [15.108] | – | 2790 nM | –
IPYSPLSPKV [15.347] | 723 nM | – | –
CC[C@H](C)[C@H](NC(=O)[C@@H](NC(=O)[C@H](Cc1ccccc1)NC(=O)[C@H](CC(N)=O)NC(=O)[C@@H](NC(=O)[C@@H](NC(=O)[C@H](CS)NC(=O)[C@@H]1CCCN1C(=O)[C@@H](N)Cc1ccc(O)cc1)[C@@H](C)O)C(C)C)[C@@H](C)O)C(=O)N[C@@H](Cc1ccccc1)C(=O)O [15.225] | – | 1520 nM | –
CC[C@H](C)[C@H](N)C(=O)N1CCC[C@H]1C(=O)N[C@@H](CC(=O)O)C(=O)N[C@@H](CO)C(=O)N[C@H](C(=O)N[C@@H](CCC(N)=O)C(=O)N[C@@H](CC(=O)O)C(=O)N[C@@H](CO)C(=O)N[C@@H](CC(C)C)C(=O)O)[C@@H](C)CC [15.174] | – | 2460 nM | –
CC[C@H](C)[C@H](NC(=O)[C@H](CCC(=O)O)NC(=O)CNC(=O)[C@@H]1CCCN1C(=O)[C@@H](N)CO)C(=O)N[C@@H](CC(N)=O)C(=O)N[C@@H](CCCNC(=N)N)C(=O)N[C@H](C(=O)N[C@@H](C)C(=O)O)C(C)C [16.015] | 2810 nM | 18000 nM | –
KPLDGEYFTL | – | – | B*0701 binding (B*0702 (B*0701)): 0
DPSHITAETA [16.183] | 2600 nM | – | IC50 (B*0701; [1]): 2350 nM
RYRPGTVAL | – | – | B*0701 binding (B*0702 (B*0701)): 0
